Experiment: Pharmacokinetic study of DRV in rats after oral dosing
Type: in vivo, male Wistar rats
[1] = male, Wistar, rat, plasma, po, 50 mg/kg
[2] = oral 50 mg/kg, rats, n=6, mean±SD

## CC(C)CN(C[C@@H](O)[C@H](Cc1ccccc1)NC(=O)O[C@H]1CO[C@H]2OCC[C@H]21)S(=O)(=O)c1ccc(N)cc1 [DRV, darunavir]
[1]
  AUC(0-inf): 1060 ± 49 ng·h/mL
  AUC(0-t): 1010 ± 48 ng·h/mL
  Cmax: 130 ± 4 ng/mL
  MRT inf: 7.89 ± 0.83 h
  Tmax: 3 ± 0.28 h
[2]
  AUMC0−t: 6518±386 ng h^2/mL
  AUMC0−∞: 8408±914 ng h^2/mL

— article PMC5761474 (Journal of Pharmaceutical Analysis, 2014)
